In brackets after ≈: the same amount, converted by molar mass. Positions of bridges follow the written chain, without caps; N, C: chain ends. Non-standard residues stand in square brackets, D forms with d. Residues, ends and D or L forms follow the SMILES beside them. No end group written: not given here. Dab = NCC[C@H](N)C(=O)O Where only a bound is given, the exact number is not on record here.

Experiment [1] relates to Fusarium graminearum PH-1. The format is cell-based. The following applies: for F. graminearum PH-1 MIC Day 1: Fusarium graminearum PH-1, 96-well, resazurin viability.
Another experiment has as its system Botrytis cinerea T4. The format is cell-based.
Experiment [2] deals with B. cinerea. Put plainly: MIC antifungal assay in SFM culture media (with or without added salts). The format is cell-based, Botrytis cinerea. As to conditions: for antifungal activity relative to the wild-type GMA4C_AC control, B. cinerea: in vitro, low cationic conditions.
The test system of a further experiment is F. graminearum. The class given is cell-based, Fusarium graminearum. The following applies: for antifungal activity relative to the wild-type GMA4C_AC control, F. graminearum: in vitro, low cationic conditions.
Another experiment has as its system Botrytis cinerea T-4. The following applies: Table 18.
The next experiment deals with F. oxysporum. The experiment is described as follows: MIC antifungal assay in SFM culture media. The format is cell-based. As to conditions: in vitro, low cationic conditions.
The test system of a further experiment is P. capsici. Put plainly: MIC antifungal assay in SFM culture media. As to conditions: in vitro, low cationic conditions. The format is cell-based.
The test system of experiment [3] is B. cinerea. Put plainly: Semi-in planta gray mold assay on detached Nicotiana benthamiana leaves (drop inoculation). The following applies: for reducing gray mold disease symptoms (lesion sizes): detached N. benthamiana leaves, 1.5 μM, 3 μM and 6 μM, 48 h. The class given is in vivo, Botrytis cinerea.
The next experiment relates to Alternaria alternata. The experiment is described as follows: 96-well plate MIC assay with resazurin viability. The following applies: Table 19; unit not given (peptide concentrations in μM). The format is cell-based.
For a further experiment, the system named is Cercospora sojina. The experiment is described as follows: 96-well plate MIC assay with resazurin viability. The following applies: Table 19; unit not given (peptide concentrations in μM). The class given is cell-based.
Experiment [4] deals with Colletotrichum gloeosporioides. Put plainly: 96-well plate MIC assay with resazurin viability. The class given is cell-based. The following applies: Table 19; unit not given (peptide concentrations in μM).

As to `C[C@@H]1[C@H](O)[C@@H](C)/C=C/C=C/C=C/C=C/C=C/C=C/C=C/[C@H](O[C@@H]2O[C@H](C)[C@@H](O)[C@H](N)[C@@H]2O)C[C@@H]2O[C@](O)(C[C@@H](O)C[C@@H](O)[C@H](O)CC[C@@H](O)C[C@@H](O)CC(=O)O[C@H]1C)C[C@H](O)[C@H]2C(=O)O` [Amphotericin-B, reference compound], in experiment [1] (F. graminearum PH-1, Example 7), the “MIC against F. graminearum” value was 6 µM (≈ 5.54 µg/mL). Moreover, the “F. graminearum PH-1 MIC Day 1” value in experiment [1] was 6 µM. In addition, the “MIC against B. cinerea” value with Botrytis cinerea T4 is 3 µM (≈ 2.77 µg/mL).

As to `C[C@@H](O)[C@H](NC(=O)[C@H](CS)NC(=O)[C@H](Cc1ccccc1)NC(=O)[C@H](CS)NC(=O)[C@H](CCCNC(=N)N)NC(=O)[C@H](CCCNC(=N)N)NC(=O)[C@H](CCCNC(=N)N)NC(=O)[C@H](Cc1ccccc1)NC(=O)CNC(=O)[C@H](CCCNC(=N)N)NC(=O)[C@H](CS)NC(=O)[C@H](CCCNC(=N)N)NC(=O)CN)C(=O)N[C@H](C(=O)N[C@@H](Cc1c[nH]cn1)C(=O)N[C@@H](CS)C(N)=O)[C@@H](C)O` [GMA4AC, reference compound] (H-GRCRGFRRRCFCTTHC-NH2), in the experiment with B. cinerea [2] (SFM, Table 9), the “MIC (μM) Botrytis cinerea” value was 6 µM. Moreover, the “MIC (μM) Fusarium graminearum” value in the experiment on F. graminearum came out at 6 µM (≈ 11.8 µg/mL). Further, the “MIC (μM) SFM” value against Botrytis cinerea T-4 stood at 3 µM (≈ 5.88 µg/mL).

Regarding `N=C(N)NCCC[C@H](NC(=O)CNC(=O)[C@@H](N)Cc1ccccc1)C(=O)N[C@@H](CS)C(=O)N[C@@H](CCCNC(=N)N)C(=O)NCC(=O)N[C@@H](Cc1ccccc1)C(=O)N[C@@H](CCCNC(=N)N)C(=O)N[C@@H](CCCNC(=N)N)C(=O)N[C@@H](CCCNC(=N)N)C(=O)N[C@@H](CS)C(=O)N[C@@H](Cc1ccccc1)C(=O)N[C@@H](CS)C(=O)N[C@@H](Cc1c[nH]c2ccccc12)C(=O)N[C@@H](CCCNC(=N)N)C(=O)N[C@@H](Cc1c[nH]c2ccccc12)C(=O)N[C@@H](CS)C(N)=O` [GMA4C_V4A] (H-FGRCRGFRRRCFCWRWC-NH2; N-terminus assumed), the “fungal growth inhibition at 6 μM” value in the experiment on B. cinerea [2] (B. cinerea, in presence of 2 mM CaCl2, 6 μM) is reported as “inhibit fungal growth”. Also, the “potency of activity relative to GMA4C_AC” value in the experiment on B. cinerea [2] (B. cinerea, in presence of 100 mM NaCl or 100 mM KCl) was determined as 2 fold. For the same compound, the “antifungal activity relative to the wild-type GMA4C_AC control, B. cinerea” value with B. cinerea [2] is listed as “equivalent”. Moreover, the “antifungal activity relative to the wild-type GMA4C_AC control, F. graminearum” value in the experiment on F. graminearum is “equivalent”. For the same compound, the “antifungal activity relative to the wild-type GMA4C_AC control, F. oxysporum” value in the experiment on F. oxysporum was “equivalent”. Further, the “antifungal activity relative to the wild-type GMA4C_AC control, P. capsici” value in the experiment on P. capsici is “equivalent”.

Turning to `NCC[C@H](NC(=O)CNC(=O)[C@@H](N)Cc1ccccc1)C(=O)N[C@@H](CS)C(=O)N[C@@H](CCN)C(=O)NCC(=O)N[C@@H](Cc1ccccc1)C(=O)N[C@@H](CCN)C(=O)N[C@@H](CCN)C(=O)N[C@@H](CCN)C(=O)N[C@@H](CS)C(=O)N[C@@H](Cc1ccccc1)C(=O)N[C@@H](CS)C(=O)N[C@@H](Cc1c[nH]c2ccccc12)C(=O)N[C@@H](CCN)C(=O)N[C@@H](Cc1c[nH]c2ccccc12)C(=O)N[C@@H](CS)C(N)=O` [GMA4C_V5A, FG(Dab)C(Dab)GF(Dab)(Dab)(Dab)CFCW(Dab)WC-NH2] (H-FG[Dab]C[Dab]GF[Dab][Dab][Dab]CFCW[Dab]WC-NH2; N-terminus assumed), the “antifungal activity relative to the wild-type GMA4C_AC control, B. cinerea” value in the experiment with B. cinerea [2] was “equivalent”. Further, the “antifungal activity relative to the wild-type GMA4C_AC control, F. graminearum” value in the experiment with F. graminearum is recorded as “equivalent”. For the same compound, in the experiment with F. oxysporum, the “antifungal activity relative to the wild-type GMA4C_AC control, F. oxysporum” value is “equivalent”. The “antifungal activity relative to the wild-type GMA4C_AC control, P. capsici” value with P. capsici is “equivalent”.

Regarding `CC[C@H](C)[C@@H]1NC(=O)[C@H](CCCNC(=N)N)NC(=O)[C@H]([C@@H](C)O)NC(=O)[C@H](Cc2ccccc2)NC(=O)[C@H](Cc2c[nH]c3ccccc23)NC(=O)[C@H](Cc2ccccc2)NC(=O)[C@H](CCCNC(=N)N)NC(=O)[C@H](CCCNC(=N)N)NC(=O)[C@H](CC(C)C)NC(=O)[C@H](Cc2ccccc2)NC(=O)CNC(=O)[C@H](CCCCN)NC(=O)[C@@H](NC(=O)[C@H](CCCNC(=N)N)NC(=O)CNC(=O)CN)CSSC[C@@H](C(N)=O)NC1=O` [GMA4C_V9] (H-GGRCKGFLRRFWFTRIC-NH2; disulfide 4-17; N-terminus assumed), the “reducing gray mold disease symptoms (lesion sizes)” value in the experiment with B. cinerea [3] was “effective”. Further, in the experiment with Alternaria alternata, the “MIC Alternaria alternata” value is reported as >12. Further, the “MIC Cercospora sojina” value in the experiment on Cercospora sojina came out at 6. The “MIC Colletotrichum gloeosporioides” value in experiment [4] is given as >12. In the experiment with Botrytis cinerea T-4, the “MIC (μM) SFM” value worked out at 3 µM (≈ 6.3 µg/mL), the “MIC (μM) (SFM + 2 mM CaCl2)” value came out at 12 µM and the “MIC (μM) (SFM + 100 mM NaCl)” value turned out to be 3 µM.

As for `CC[C@H](C)[C@@H]1NC(=O)[C@H](CCCNC(=N)N)NC(=O)[C@H]([C@@H](C)O)NC(=O)[C@H](Cc2c[nH]c3ccccc23)NC(=O)[C@H](Cc2ccc(O)cc2)NC(=O)[C@H](Cc2c[nH]c3ccccc23)NC(=O)[C@H](CCCNC(=N)N)NC(=O)[C@H](CCCNC(=N)N)NC(=O)[C@H](CCCNC(=N)N)NC(=O)[C@H](Cc2ccccc2)NC(=O)CNC(=O)[C@H](CCCCN)NC(=O)[C@@H](NC(=O)[C@H](CCCNC(=N)N)NC(=O)CNC(=O)CN)CSSC[C@@H](C(N)=O)NC1=O` [GMA4C_V10] (H-GGRCKGFRRRWYWTRIC-NH2; disulfide 4-17; N-terminus assumed), the “reducing gray mold disease symptoms (lesion sizes)” value in the experiment with B. cinerea [3] is “effective”. The “reducing the symptoms of gray mold, comparison” value in the experiment with B. cinerea [3] (low concentrations of 1.5 μM and 3 μM, compared with GMA4C_V9) is reported as “more effective”. Further, in the experiment with Alternaria alternata, the “MIC Alternaria alternata” value is >12. Also, in the experiment on Cercospora sojina, the “MIC Cercospora sojina” value is reported as 6. Moreover, in [4], the “MIC Colletotrichum gloeosporioides” value is reported as >12. In the experiment on Botrytis cinerea T-4, the “MIC (μM) SFM” value came out at 3 µM (≈ 6.6 µg/mL), the “MIC (μM) (SFM + 2 mM CaCl2)” value stood at 3 µM, the “MIC (μM) (SFM + 100 mM KCl)” value lay in the range of 3 to 6 µM and the “MIC (μM) (SFM + 100 mM NaCl)” value turned out to be 3 µM.

With `C[C@H](NC(=O)CN)C(=O)N[C@H]1CSSC[C@@H](C(N)=O)NC(=O)[C@H](CCCCN)NC(=O)[C@H](CCCCN)NC(=O)[C@H](Cc2ccc(O)cc2)NC(=O)[C@H](Cc2c[nH]c3ccccc23)NC(=O)[C@H](Cc2ccccc2)NC(=O)[C@H](Cc2c[nH]c3ccccc23)NC(=O)[C@H](C)NC(=O)[C@H](Cc2ccccc2)NC(=O)CNC(=O)[C@H](Cc2ccccc2)NC(=O)CNC(=O)[C@H](CCC(N)=O)NC(=O)[C@H](CCCNC(=N)N)NC(=O)[C@H](Cc2c[nH]cn2)NC1=O` [GMA5CA_V3] (H-GACHRQGFGFAWFWYKKC-NH2; disulfide 3-18; N-terminus assumed), in the experiment on Alternaria alternata, the “MIC Alternaria alternata” value is reported as 3. Also, the “MIC Cercospora sojina” value against Cercospora sojina was found to be 6. For the same compound, the “MIC Colletotrichum gloeosporioides” value in experiment [4] is on record as >12. In the experiment on Botrytis cinerea T-4, the “MIC (μM) SFM” value was 3 µM (≈ 6.57 µg/mL), the “MIC (μM) (SFM + 2 mM CaCl2)” value is >12 µM, the “MIC (μM) (SFM + 100 mM KCl)” value is >12 µM and the “MIC (μM) (SFM + 100 mM NaCl)” value was >12 µM.

`C[C@H](NC(=O)CN)C(=O)N[C@H]1CSSC[C@@H](C(N)=O)NC(=O)[C@H](CCCCN)NC(=O)[C@H](CCCCN)NC(=O)[C@H](Cc2ccc(O)cc2)NC(=O)[C@H](Cc2ccccc2)NC(=O)[C@H](Cc2ccccc2)NC(=O)[C@H](Cc2ccccc2)NC(=O)[C@H](C)NC(=O)[C@H](Cc2ccccc2)NC(=O)CNC(=O)[C@H](Cc2ccccc2)NC(=O)CNC(=O)[C@H](CCC(N)=O)NC(=O)[C@H](CCCNC(=N)N)NC(=O)[C@H](Cc2c[nH]cn2)NC1=O` [GMA5CA_V4] (H-GACHRQGFGFAFFFYKKC-NH2; disulfide 3-18; N-terminus assumed): the “MIC Alternaria alternata” value with Alternaria alternata is given as 3. Further, the “MIC Cercospora sojina” value with Cercospora sojina came to 6. The “MIC Colletotrichum gloeosporioides” value in [4] was >12. For the same compound, in the experiment with Botrytis cinerea T-4, the “MIC (μM) SFM” value is 3 µM (≈ 6.33 µg/mL), the “MIC (μM) (SFM + 2 mM CaCl2)” value was >12 µM, the “MIC (μM) (SFM + 100 mM KCl)” value is >12 µM and the “MIC (μM) (SFM + 100 mM NaCl)” value is >12 µM.

As for `C[C@H](NC(=O)CN)C(=O)N[C@@H](CS)C(=O)N[C@@H](Cc1c[nH]cn1)C(=O)N[C@@H](CCCNC(=N)N)C(=O)N[C@@H](CCC(N)=O)C(=O)NCC(=O)N[C@@H](Cc1ccccc1)C(=O)NCC(=O)N[C@@H](Cc1ccccc1)C(=O)N[C@@H](C)C(=O)N[C@@H](CS)C(=O)N[C@@H](Cc1ccccc1)C(=O)N[C@@H](CS)C(=O)N[C@@H](Cc1ccc(O)cc1)C(=O)N[C@@H](CCCCN)C(=O)N[C@@H](CCCCN)C(=O)N[C@@H](CS)C(N)=O` [GMA5CA_WT, reference compound] (H-GACHRQGFGFACFCYKKC-NH2; N-terminus assumed), in the experiment with Alternaria alternata, the “MIC Alternaria alternata” value is listed as 6. Also, the “MIC Cercospora sojina” value with Cercospora sojina is reported as 12. Moreover, the “MIC Colletotrichum gloeosporioides” value in [4] is given as >12.

Turning to “GRCRGFRRRCFCTTHC-NH2 (cysteine pairing not given here) [GMA4AC_WT, reference compound]”, the “MIC Alternaria alternata” value in the experiment with Alternaria alternata was >12. Moreover, the “MIC Cercospora sojina” value against Cercospora sojina is >12. Also, the “MIC Colletotrichum gloeosporioides” value in experiment [4] was >12.

“PD81.1.1: SEQ ID NO: 534 with N-terminal alanine; Pinus sylvestris wild-type defensin, expressed in Pichia pastoris (RMCKTPSGKFKGYCVSSTNCKNVCRTEGFPTGSCDFHVASRKCYCYKPC; N-terminal alanine added; listed as Pinus sylvestris)”: in experiment [1], the “F. graminearum PH-1 MIC Day 1” value was determined as 1.5 µM. In the experiment on Botrytis cinerea T4, the “MIC against B. cinerea” value was 1 µM.
